# Counter-ions that a name gives are not always drawn. Like-named read-outs stand apart in the source and are kept apart here. Starred links: 1 amine or outer side, 2 acyl side, 3 side chain; linkers in the order of their positions; H or OH if unused. Positions of bridges follow the written chain, without caps; N, C: chain ends. Non-standard residues stand in square brackets, D forms with d. Residues, ends and D or L forms follow the SMILES beside them. *: point of attachment. DOTA = O=C(O)CN1CCN(CC(=O)O)CCN(CC(=O)*)CCN(CC(=O)O)CC1; Trp(5-OH) = N[C@@H](Cc1c[nH]c2ccc(O)cc12)C(=O)O; NMePhe(4-F) = CN[C@@H](Cc1ccc(F)cc1)C(=O)O; NMehPhe = CN[C@@H](CCc1ccccc1)C(=O)O; Adipoyl = O=C(CCCCC(=O)[*:2])[*:1]; Aad = N[C@@H](CCCC(=O)O)C(=O)O; Gly(cPr) = N[C@H](C(=O)O)C1CC1; NMehCys = CN[C@@H](CCS)C(=O)O; NMeK = CN[C@@H](CCCCN)C(=O)O; NMeDap = CN[C@@H](CN)C(=O)O; NMeS = CN[C@@H](CO)C(=O)O; hCys = N[C@@H](CCS)C(=O)O
# What was measured:
# Assay type in all cases: binding
# human HER2 (23-652) [1] = target: T1, human HER2 (23-652) (Homo sapiens, UniProt P04626); assay: TR-FRET competition assay for peptide potency, human HER2; design: towards human HER2 (23-652) and mouse HER2 (23-653); made in house; host or cells: mammalian cells
# human HER2 (23-652) [2] = target: T1, human HER2 (23-652); assay: Surface plasmon resonance (SPR) for assessment of peptide affinity, human HER2; design: towards human HER2 (23-652) and mouse HER2 (23-653); made in house
# Outline: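 Binding kinetics fitted from sensorgrams with 280 s peptide association then 3000 s dissociation (30 uL/min), using HER2 (23-652) either directly immobilized (SA/CM5) or anti-Fc-captured; 3 M magnesium chloride used for regeneration.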
# mouse HER2 (23-653) [3] = target: T2, mouse HER2 (23-653) (Mus musculus, UniProt P70424); assay: Surface plasmon resonance (SPR) for assessment of peptide affinity, mouse HER2; design: mouse HER2 (23-653) using a Cy5 labeled peptide as a probe; made in house
# Excerpt: Each protein was immobilized either onto a SA sensorchip (Cytiva, BR-1005-31) or CM5 sensorchip (Cytiva, BR-1005-30) to a density of 800-2000 RU.
# mouse HER2 (23-653) [4] = target: T2, mouse HER2 (23-653); assay: TR-FRET competition assay for peptide potency, mouse HER2; design: mouse HER2 (23-653) using a Cy5 labeled peptide as a probe; made in house; host or cells: mammalian cells
# [5] = huHER2 TR-FRET IC50, TR-FRET competition with Cy5 labeled peptide probe, 0.1 nM human HER2, 24 h incubation
# [6] = moHER2 TR-FRET IC50, TR-FRET competition with Cy5 labeled peptide probe, 0.1 nM mouse HER2, 24 h incubation
# [7] = TR-FRET competition with Cy5 labeled peptide probe, 0.1 nM human HER2, 24 h incubation, read-out: huHER2 TR-FRET IC50
# [8] = SPR, human HER2 extracellular domain, 25° C., 1:1 binding model, read-out: huHER2-SPR-ONC KD
# [9] = SPR, mouse HER2 extracellular domain, 25° C., 1:1 binding model, read-out: moHER2-SPR-ONC KD
# [10] = TR-FRET competition with Cy5 labeled peptide probe, 0.1 nM mouse HER2, 24 h incubation, read-out: moHER2 TR-FRET IC50
IC50 (human HER2 (23-652) [1]; [7]) [nM],Kd (human HER2 (23-652) [2]; [8]) [nM],Kd (mouse HER2 (23-653) [3]; [9]) [nM],IC50 (mouse HER2 (23-653) [4]; [10]) [nM],IC50 (human HER2 (23-652) [1]; read-out: huHER2 TR-FRET IC50) [nM],"IC50 (human HER2 (23-652) [1]; value in parentheses (**): recalculated after further repetition, read-out: huHER2 TR-FRET IC50, recalculated value achieved after further repetition) [nM]","IC50 (mouse HER2 (23-653) [4]; value in parentheses (**): recalculated after further repetition, read-out: moHER2 TR-FRET IC50, recalculated value achieved after further repetition) [nM]",SMILES,IC50 (human HER2 (23-652) [1]; [5]) [nM],Kd (human HER2 (23-652) [2]) [nM],Kd (mouse HER2 (23-653) [3]) [nM],IC50 (mouse HER2 (23-653) [4]; [6]) [nM]
,,,,,,,"CN1C(=O)[C@H](Cc2ccc(O)cc2)NC(=O)[C@@H](N)CCC(=O)NC[C@@H](C(=O)N(C)[C@@H](Cc2ccc(F)cc2)C(N)=O)N(C)C(=O)[C@H](C2CC2)NC(=O)[C@H](Cc2c[nH]c3ccccc23)NC(=O)[C@H](Cc2c[nH]c3ccc(O)cc23)NC(=O)[C@H](CO)N(C)C(=O)[C@H](CCc2ccccc2)N(C)C(=O)[C@@H]1CO [Example A38, (3S,6S,9S,12S,15S,18S,21S,24S,27S)-9-((1H-indol-3-yl)methyl)-27-amino-N-((S)-1-amino-3-(4-fluorophenyl)-1-oxopropan-2-yl)-6-cyclopropyl-12-((5-hydroxy-1H-indol-3-yl)methyl)-24-(4-hydroxybenzyl)-15,21-bis(hydroxymethyl)-N,4,16,19,22-pentamethyl-5,8,11,14,17,20,23,26,30-nonaoxo-18-phenethyl-1,4,7,10,13,16,19,22,25-nonaazacyclotriacontane-3-carboxamide TFA salt] (H-EY[NMeS][NMehPhe][NMeS][Trp(5-OH)]W[Gly(cPr)][NMeDap][NMePhe(4-F)]-NH2; lactam 1-9)",93,46,67,206
< 0.1,< 0.1,0.2,0.3,,,,CC(=O)NCCCC[C@H]1C(=O)N[C@@H](Cc2c[nH]c3ccc(O)cc23)C(=O)N[C@@H](Cc2c[nH]c3ccccc23)C(=O)N[C@@H](C2CC2)C(=O)N(C)[C@H](C(=O)N(C)[C@@H](Cc2ccc(F)cc2)C(=O)N[C@@H](CCCCNC(=O)CN2CCN(CC(=O)O)CCN(CC(=O)O)CCN(CC(=O)O)CC2)C(N)=O)CNC(=O)CCCCC(=O)N[C@@H](Cc2ccc(O)cc2)C(=O)N[C@@H](CO)C(=O)N(C)[C@@H](CCc2ccccc2)C(=O)N1C [Example C14] (YS[NMehPhe][NMeK](Ac)[Trp(5-OH)]W[Gly(cPr)][NMeDap][NMePhe(4-F)]K(DOTA)-NH2; linker N-8 via Adipoyl),,,,
,309,421,413,223,,,"CC(=O)N[C@H]1CC(=O)NC[C@@H](C(=O)N(C)[C@@H](Cc2ccc(F)cc2)C(N)=O)N(C)C(=O)[C@H](C2CC2)NC(=O)[C@H](Cc2c[nH]c3ccccc23)NC(=O)[C@H](Cc2c[nH]c3ccc(O)cc23)NC(=O)[C@H](CO)N(C)C(=O)[C@H](CCc2ccccc2)N(C)C(=O)[C@H](CO)NC(=O)[C@H](Cc2ccc(O)cc2)NC1=O [Example A28, (3S,6S,9S,12S,15S,18S,21S,24S,27S)-9-((1H-indol-3-yl)methyl)-27-acetamido-N-((S)-1-amino-3-(4-fluorophenyl)-1-oxopropan-2-yl)-6-cyclopropyl-12-((5-hydroxy-1H-indol-3-yl)methyl)-24-(4-hydroxybenzyl)-15,21-bis(hydroxymethyl)-N,4,16,19-tetramethyl-5,8,11,14,17,20,23,26,29-nonaoxo-18-phenethyl-1,4,7,10,13,16,19,22,25-nonaazacyclononacosane-3-carboxamide] (Ac-DYS[NMehPhe][NMeS][Trp(5-OH)]W[Gly(cPr)][NMeDap][NMePhe(4-F)]-NH2; lactam 1-9)",,,,
,178,148,287,97,,,"CC(=O)NCCCC[C@H]1C(=O)N[C@@H](Cc2c[nH]c3ccc(O)cc23)C(=O)N[C@@H](Cc2c[nH]c3ccccc23)C(=O)N[C@@H](C2CC2)C(=O)N(C)[C@H](C(=O)N(C)[C@@H](Cc2ccc(F)cc2)C(N)=O)CCSSCC[C@H](N)C(=O)N[C@@H](Cc2ccc(O)cc2)C(=O)N[C@@H](CO)C(=O)N(C)[C@@H](CCc2ccccc2)C(=O)N1C [Example A55, (5S,8S,11S,14S,17S,20S,23S,26S,29S)-11-((1H-indol-3-yl)methyl)-17-(4-acetamidobutyl)-29-amino-N-((S)-1-amino-3-(4-fluorophenyl)-1-oxopropan-2-y1)-8-cyclopropyl-14-((5-hydroxy-1H-indol-3-yl)methyl)-26-(4-hydroxybenzyl)-23-(hydroxymethyl)-N,6,18,21-tetramethyl-7,10,13,16,19,22,25,28-octaoxo-20-phenethyl-1,2-dithia-6,9,12,15,18,21,24,27-octaazacyclohentriacontane-5-carboxamide TFA salt] (H-[hCys]YS[NMehPhe][NMeK](Ac)[Trp(5-OH)]W[Gly(cPr)][NMehCys][NMePhe(4-F)]-NH2; disulfide 1-9)",,,,
,0.6,3.1,4.4,,1.3,,CC(=O)NCCCC[C@H]1C(=O)N[C@@H](Cc2c[nH]c3ccc(O)cc23)C(=O)N[C@@H](Cc2c[nH]c3ccccc23)C(=O)N[C@@H]([C@H](C)O)C(=O)N(C)[C@H](C(=O)N(C)[C@@H](Cc2ccc(F)cc2)C(=O)N[C@@H](CCCCNC(=O)N2CCN(CC(=O)O)CC2)C(N)=O)CNC(=O)CC[C@H](NC(=O)CCNC(=O)CN2CCN(CC(=O)O)CCN(CC(=O)O)CCN(CC(=O)O)CC2)C(=O)N[C@@H](Cc2ccc(O)cc2)C(=O)N[C@@H](CO)C(=O)N(C)[C@@H](CCc2ccccc2)C(=O)N1C [Example C28],,,,
,,,,,,,"COCCOCCOCCOCCOCCOCCOCCOCCOCCOCCOCCOCCC(=O)N[C@H]1CCCC(=O)NC[C@@H](C(=O)N(C)[C@@H](Cc2ccc(F)cc2)C(=O)N[C@@H](CCCCNC(=O)c2ccc([N+](C)(C)C)nc2)C(N)=O)N(C)C(=O)[C@H](C2CC2)NC(=O)[C@H](Cc2c[nH]c3ccccc23)NC(=O)[C@H](Cc2c[nH]c3ccc(O)cc23)NC(=O)[C@H](CCCCNC(C)=O)N(C)C(=O)[C@H](CCc2ccccc2)N(C)C(=O)[C@H](CO)NC(=O)[C@H](Cc2ccc(O)cc2)NC1=O [Example F4, TFA salt]",< 0.1,< 0.1,0.1,0.3
,1340,864,> 1000,> 1000,,,"CC(=O)N[C@H]1CCC(=O)NC[C@@H](C(=O)N(C)[C@@H](Cc2ccc(F)cc2)C(N)=O)NC(=O)[C@H](C2CC2)NC(=O)[C@H](Cc2c[nH]c3ccccc23)NC(=O)[C@H](Cc2c[nH]c3ccc(O)cc23)NC(=O)[C@H](CO)N(C)C(=O)[C@H](CCc2ccccc2)N(C)C(=O)[C@H](CO)NC(=O)[C@H](Cc2ccc(O)cc2)NC1=O [Example A12, (3S,6S,9S,12S,15S,18S,21S,24S,27S)-9-((1H-indol-3-yl)methyl)-27-acetamido-N-((S)-1-amino-3-(4-fluorophenyl)-1-oxopropan-2-yl)-6-cyclopropyl-12-((5-hydroxy-1H-indol-3-yl)methyl)-24-(4-hydroxybenzyl)-15,21-bis(hydroxymethyl)-N,16,19-trimethyl-5,8,11,14,17,20,23,26,30-nonaoxo-18-phenethyl-1,4,7,10,13,16,19,22,25-nonaazacyclotriacontane-3-carboxamide]",,,,
62,47,39,76,,,49,CC(=O)NCCCC[C@H]1C(=O)N[C@@H](Cc2c[nH]c3ccc(O)cc23)C(=O)N[C@@H](Cc2c[nH]c3ccccc23)C(=O)N[C@@H]([C@H](C)O)C(=O)N(C)[C@H](C(=O)N(C)[C@@H](Cc2ccc(F)cc2)C(=O)N[C@@H](CCCCNC(=O)N2CCN(CC(=O)O)CC2)C(=O)N[C@H](CCCCNC(=O)CN2CCN(CC(=O)O)CCN(CC(=O)O)CCN(CC(=O)O)CC2)C(N)=O)CNC(=O)CC[C@H](NC(C)=O)C(=O)N[C@@H](Cc2ccc(O)cc2)C(=O)N[C@@H](CO)C(=O)N(C)[C@@H](CCc2ccccc2)C(=O)N1C [Example C23],,,,

SMILES,IC50 (human HER2 (23-652) [1]; [7]) [nM],Kd (human HER2 (23-652) [2]; [8]) [nM],Kd (mouse HER2 (23-653) [3]; [9]) [nM],IC50 (mouse HER2 (23-653) [4]; [10]) [nM],IC50 (human HER2 (23-652) [1]; read-out: huHER2 TR-FRET IC50) [nM],"IC50 (human HER2 (23-652) [1]; value in parentheses (**): recalculated after further repetition, read-out: huHER2 TR-FRET IC50, recalculated value achieved after further repetition) [nM]","IC50 (mouse HER2 (23-653) [4]; value in parentheses (**): recalculated after further repetition, read-out: moHER2 TR-FRET IC50, recalculated value achieved after further repetition) [nM]",IC50 (human HER2 (23-652) [1]; [5]) [nM],Kd (human HER2 (23-652) [2]) [nM],Kd (mouse HER2 (23-653) [3]) [nM],IC50 (mouse HER2 (23-653) [4]; [6]) [nM]
"CN1C(=O)[C@H](CO)NC(=O)[C@H](Cc2ccc(O)cc2)NC(=O)[C@@H](N)CCCC(=O)NC[C@@H](C(=O)N(C)[C@@H](Cc2ccc(F)cc2)C(N)=O)N(C)C(=O)[C@H](C2CC2)NC(=O)[C@H](Cc2c[nH]c3ccccc23)NC(=O)[C@H](Cc2c[nH]c3ccc(O)cc23)NC(=O)[C@H](CO)N(C)C(=O)[C@@H]1CCc1ccccc1 [Example A36, (3S,6S,9S,12S,15S,18S,21S,24S,27S)-9-((1H-indol-3-yl)methyl)-27-amino-N-((S)-1-amino-3-(4-fluorophenyl)-1-oxopropan-2-yl)-6-cyclopropyl-12-((5-hydroxy-1H-indol-3-yl)methyl)-24-(4-hydroxybenzyl)-15,21-bis(hydroxymethyl)-N,4,16,19-tetramethyl-5,8,11,14,17,20,23,26,31-nonaoxo-18-phenethyl-1,4,7,10,13,16,19,22,25-nonaazacyclohentriacontane-3-carboxamide TFA salt] (H-[Aad]YS[NMehPhe][NMeS][Trp(5-OH)]W[Gly(cPr)][NMeDap][NMePhe(4-F)]-NH2; lactam 1-9)",,,34,102,,,,52,38,,

# — patent US20250332300A1 (priority 2024, published 2025)
